Columns and labels:
Test in all cases: Colony coloration on fresh and stored media, Example 10 (6-chloro-3-indolyl-β-N-acetylglucosaminide, Columbia)
Format in all cases: cell-based
Listeria ivanovii 18 = tested on: Listeria ivanovii 18; set-up: key to intensity of coloration (arbitrary scale): 0: no activity; 0.1: trace of coloration; 0.5: very pale coloration; 1: distinct coloration of low intensity; 2: clear coloration of medium intensity; 3: intense coloration; 4: very intense coloration; —: absence of coloration or intensity; key to color: M: magenta; —: colorless
Experimental: (§1) Two stock solutions of substrate were prepared, one having a concentration of 50 g/l in DMF and the other having a concentration of 50 g/l in a mixture of DMF (40%) and Tween® 20 (60%). A volume corresponding to a final concentration of 175 mg/l of substrate was then added to a supercooled gelled medium, namely Columbia medium not supplemented with blood. […] After three weeks, six weeks, nine weeks and twelve weeks, two media like those described above were prepared for immediate use.
(§2) Microorganisms originating from the Applicant's collection were inoculated from a 0.5 McFarland suspension, by isolation in three quadrants, onto the two media prepared for immediate use and the two media stored at +4° C. The dishes were incubated at 37° C. for 48 hours. The colonies formed were examined visually after 24 and 48 hours of incubation. The coloration of these colonies and the intensity of this coloration were noted.

[1] = tested on: Pseudomonas aeruginosa 165; set-up: key: M: magenta; —: colorless
Experimental: as §1, §2

Staphylococcus aureus 20 = tested on: Staphylococcus aureus 20; set-up: key: M: magenta; —: colorless
Experimental: as §1, §2

[2] = IT 24 h, fresh medium, DMF Tween 20, 6-week comparison
[3] = IT 24 h, fresh medium, DMF Tween 20, 9-week comparison
[4] = IT 24 h, fresh medium, DMF Tween 20, 12-week comparison
[5] = IT 24 h, fresh medium, DMF, 6-week comparison
[6] = IT 24 h, fresh medium, DMF, 9-week comparison
[7] = IT 24 h, fresh medium, DMF, 12-week comparison
[8] = IT 24 h, medium stored for 6 weeks at +4° C., DMF
[9] = IT 24 h, medium stored for 6 weeks at +4° C., DMF Tween 20
[10] = IT 24 h, medium stored for 9 weeks at +4° C., DMF
[11] = IT 24 h, medium stored for 9 weeks at +4° C., DMF Tween 20
[12] = IT 24 h, medium stored for 12 weeks at +4° C., DMF
[13] = IT 24 h, medium stored for 12 weeks at +4° C., DMF Tween 20
[14] = IT 48 h, fresh medium, DMF Tween 20, 6-week comparison
[15] = IT 48 h, fresh medium, DMF Tween 20, 9-week comparison
[16] = IT 48 h, fresh medium, DMF Tween 20, 12-week comparison
[17] = IT 48 h, fresh medium, DMF, 6-week comparison
[18] = IT 48 h, fresh medium, DMF, 9-week comparison
[19] = IT 48 h, fresh medium, DMF, 12-week comparison
[20] = IT 48 h, medium stored for 6 weeks at +4° C., DMF
[21] = IT 48 h, medium stored for 6 weeks at +4° C., DMF Tween 20
[22] = IT 48 h, medium stored for 9 weeks at +4° C., DMF
[23] = IT 48 h, medium stored for 9 weeks at +4° C., DMF Tween 20
[24] = IT 48 h, medium stored for 12 weeks at +4° C., DMF
[25] = IT 48 h, medium stored for 12 weeks at +4° C., DMF Tween 20

CC(=O)N[C@H]1[C@H](Oc2c[nH]c3cc(Cl)ccc23)O[C@H](CO)[C@@H](O)[C@@H]1O
color (Listeria ivanovii 18; [2]): M | intensity of coloration (arbitrary scale) (Listeria ivanovii 18; [2]): 1.5 | color (Listeria ivanovii 18; [3]): M | intensity of coloration (arbitrary scale) (Listeria ivanovii 18; [3]): 1.5 | color (Listeria ivanovii 18; [4]): M | intensity of coloration (arbitrary scale) (Listeria ivanovii 18; [4]): 1.5 | color (Listeria ivanovii 18; [5]): M | intensity of coloration (arbitrary scale) (Listeria ivanovii 18; [5]): 1.5 | color (Listeria ivanovii 18; [6]): M | intensity of coloration (arbitrary scale) (Listeria ivanovii 18; [6]): 1.5 | color (Listeria ivanovii 18; [7]): M | intensity of coloration (arbitrary scale) (Listeria ivanovii 18; [7]): 1.5 | color (Listeria ivanovii 18; [8]): M | intensity of coloration (arbitrary scale) (Listeria ivanovii 18; [8]): 0.5 | color (Listeria ivanovii 18; [9]): M | intensity of coloration (arbitrary scale) (Listeria ivanovii 18; [9]): 1.5 | color (Listeria ivanovii 18; [10]): M | color (Listeria ivanovii 18; [11]): M | intensity of coloration (arbitrary scale) (Listeria ivanovii 18; [11]): 1 | color (Listeria ivanovii 18; [12]): M | color (Listeria ivanovii 18; [13]): M | intensity of coloration (arbitrary scale) (Listeria ivanovii 18; [13]): 1 | color (Listeria ivanovii 18; [14]): M | intensity of coloration (arbitrary scale) (Listeria ivanovii 18; [14]): 2.5 | color (Listeria ivanovii 18; [15]): M | intensity of coloration (arbitrary scale) (Listeria ivanovii 18; [15]): 2.5 | color (Listeria ivanovii 18; [16]): M | intensity of coloration (arbitrary scale) (Listeria ivanovii 18; [16]): 2.5 | color (Listeria ivanovii 18; [17]): M | intensity of coloration (arbitrary scale) (Listeria ivanovii 18; [17]): 2.5 | color (Listeria ivanovii 18; [18]): M | intensity of coloration (arbitrary scale) (Listeria ivanovii 18; [18]): 2.5 | color (Listeria ivanovii 18; [19]): M | intensity of coloration (arbitrary scale) (Listeria ivanovii 18; [19]): 2.5 | color (Listeria ivanovii 18; [20]): M | intensity of coloration (arbitrary scale) (Listeria ivanovii 18; [20]): 2 | color (Listeria ivanovii 18; [21]): M | intensity of coloration (arbitrary scale) (Listeria ivanovii 18; [21]): 2.5 | color (Listeria ivanovii 18; [22]): M | intensity of coloration (arbitrary scale) (Listeria ivanovii 18; [22]): 0.5 | color (Listeria ivanovii 18; [23]): M | intensity of coloration (arbitrary scale) (Listeria ivanovii 18; [23]): 2.5 | color (Listeria ivanovii 18; [24]): M | color (Listeria ivanovii 18; [25]): M | intensity of coloration (arbitrary scale) (Listeria ivanovii 18; [25]): 2 | color [1, 2]: — | color [1, 3]: — | color [1, 4]: — | color [1, 5]: — | color [1, 6]: — | color [1, 7]: — | color [1, 8]: — | color [1, 9]: — | color [1, 10]: — | color [1, 11]: — | color [1, 12]: — | color [1, 13]: — | color [1, 14]: — | color [1, 15]: — | color [1, 16]: — | color [1, 17]: — | color [1, 18]: — | color [1, 19]: — | color [1, 20]: — | color [1, 21]: — | color [1, 22]: — | color [1, 23]: — | color [1, 24]: — | color [1, 25]: — | color (Staphylococcus aureus 20; [2]): — | color (Staphylococcus aureus 20; [3]): — | color (Staphylococcus aureus 20; [4]): — | color (Staphylococcus aureus 20; [5]): — | color (Staphylococcus aureus 20; [6]): — | color (Staphylococcus aureus 20; [7]): — | color (Staphylococcus aureus 20; [8]): — | color (Staphylococcus aureus 20; [9]): — | color (Staphylococcus aureus 20; [10]): — | color (Staphylococcus aureus 20; [11]): — | color (Staphylococcus aureus 20; [12]): — | color (Staphylococcus aureus 20; [13]): — | color (Staphylococcus aureus 20; [14]): — | color (Staphylococcus aureus 20; [15]): — | color (Staphylococcus aureus 20; [16]): — | color (Staphylococcus aureus 20; [17]): — | color (Staphylococcus aureus 20; [18]): — | color (Staphylococcus aureus 20; [19]): — | color (Staphylococcus aureus 20; [20]): — | color (Staphylococcus aureus 20; [21]): — | color (Staphylococcus aureus 20; [22]): — | color (Staphylococcus aureus 20; [23]): — | color (Staphylococcus aureus 20; [24]): — | color (Staphylococcus aureus 20; [25]): —
